The record followed here is patent publication EP0645397B1, “Glutathione analogs and paralog panels comprising glutathione mimics” (TERRAPIN TECHNOLOGIES, INC., priority 1993, dated 1998).

The test system of test [1] is rat cytosolic GST isoenzymes. Put plainly: Isoenzyme composition of sorbent eluates by SDS/PAGE and reverse-phase HPLC. The test is classed as binding. As to the method:
Fractions eluted from the sorbents listed in Table 3 were analyzed by SDS/PAGE followed by silver staining. S-L-GSH and HxGSH sorbents bound proteins which corresponded to the previously observed electrophoretic band pattern of rat liver GST subunits. […] As the π-class GST 7-7 is found at low levels in rat liver cytosol, other rat tissues known to express higher levels of this isoenzyme also were tested.
Independent confirmation of this conclusion, at higher resolution, was provided by reverse-phase HPLC analyses of the GST isoenzymes in the eluates from different sorbents. […] Subunits 3, 4 and 6 are µ-class isoenzymes, subunits 1a, 1b, 2 and 8 are α-class isoenzymes, and subunit 7 is the π-class isoenzyme.

Test [2] relates to glyoxalase I. In words: SDS/PAGE detection of glyoxalase I-like protein in sorbent eluates. It is filed as binding, rat. As to conditions: EDTA in buffers. From the text: A protein with a molecular migration similar to that of another GSH-dependent enzyme, glyoxalase I, was also present in the eluates from γE-C(Bz)-A and γE-C(Bz)-βA, but was not detected in eluates from the other sorbents. […] Glyoxalase I is known to be a metal-dependent enzyme, and the presence of EDTA in the buffers may have interfered with binding activity.

Test [3] relates to rat liver cytosolic GST isoenzymes. In words: Affinity chromatography of rat liver cytosol on GSH and GSH analog sorbents; recovery of protein and CDNB-conjugating activity in elution fractions. It is filed as binding. As to the method: 0.66 g epoxy Sepharose™ 6B (Pharmacia) was swollen with 10 mL water for 15 min, then rinsed twice with 10 mL water in a 15 mL sintered glass funnel. A solution of 100-500 mg of the crude tripeptide in 5 mL ethanol and 10 mL water was adjusted to pH 11-12 with 6 N NaOH in a 20 mL scintillation vial with a polycone cap. The rinsed resin was added, and gently agitated overnight in a 37° water bath. The pH was checked the next day and brought back to pH 11-12 with 6 N NaOH if needed. After another day of agitation, the resin was filtered (the peptide-containing liquid was acidified with conc HCl, evaporated and saved) and rinsed three times with 10 mL water. The unfunctionalized epoxy groups were capped by soaking the resin in 10 mL of water which contained about 0.1 mL ethanolamine for 1 hr. The resin was then rinsed three times with 10 mL water, and a sample was removed for analysis. The remainder was rinsed with 10 mL of 0.1 M NaOAc, 0.5 M NaCl pH 4.0 buffer, followed by 10 mL of 0.1 M tris chloride, 0.5 M NaCl pH 8.0 buffer. The resin was stored at 4°C in this pH 8 buffer.
The recoveries of protein and GST (CDNB-conjugating) activity in the elution fractions after affinity purification of rat liver cytosolic GST isoenzymes on various compounds of the invention are shown in Table 3.

Regarding `N[C@@H](CCC(=O)N[C@@H](CSCc1ccccc1)C(=O)NCCC(=O)O)C(=O)O` [γE-C(Bz)-βA, γ-glutamyl S-benzyl cysteinyl β-alanine], in test [1] (rat liver cytosol, silver staining), the “SDS/PAGE band pattern of eluate” value is on record as “highly enriched band for presumptive µ-class isoenzymes”. The isoenzymes bound result in test [1] (reverse-phase HPLC of eluates) was “selectively bound the µ-class isoenzymes 3 and 4”. In addition, the “protein with a molecular migration similar to glyoxalase I in eluate” value in test [2] is “present”. The compound further came in with a Protein recovery in test [3] (Table 4, rat cytosolic GST isoenzymes) of 1.0%. In test [3] (relative to HxGSH sorbent), the “protein recovery seen with HxGSH” value is on record as 33%. This compound gave a CDNB-conjugating activities in test [3] (relative to HxGSH sorbent, after correcting for the inhibitory properties of the eluting ligand) of 52%.
